Literature values, collected in patent US7611910B2, “Method for diagnosis of alzheimer's disease” (Intracell, LLC, priority 1998, dated 2009).

Conditions: patients treated with indomethacin

## COc1ccc2c(c1)c(CC(=O)O)c(C)n2C(=O)c1ccc(Cl)cc1 [indomethacin]
  progression of Alzheimer's disease: reduced progression
